Measured values published in patent US20220056037A1 (SPV THERAPEUTICS INC., priority 2018, published 2022).
pIC50: −log10 of the molar value. Where two headings read alike, the source gives them in different places.

Tests used:
Assay in all cases: Inhibition assay, microfluidic LabChip (Nanosyn)
Type in all cases: biochemical
[1] = target: T1, CDK9-CYCLINT1 (Homo sapiens, UniProt P50750);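 further: values are IC50 from a concentration-response series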
T1 construct: purchased Carna
Procedure: (§1) The reaction was terminated by the addition of EDTA. The plates were analyzed using a Caliper LabChip 3000.
(§2) Additional inhibition assays were performed as described above.

[2] = target: CDK7 CyclinH (Homo sapiens, UniProt P50613);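 further: values are IC50 from a concentration-response series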
Procedure: as §1, §2

[3] = target: CDK1/B (Homo sapiens, UniProt P06493); settings: Table 3a
Procedure: as §1, §2

[4] = target: T2, CDK2-CYCLINA (Homo sapiens, UniProt P24941);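 further: values are IC50 from a concentration-response series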
T2 construct: purchased Millipore
Procedure: as §1, §2

[5] = target: T3, CDK4-CYCLIND1 (Homo sapiens, UniProt P11802); settings: read-out: CDK4 CyclinD1 IC50
T3 construct: purchased Invitrogen
Procedure: as §1, §2

[6] = target: T4, CDK6-CYCLIND3 (Homo sapiens, UniProt Q00534); settings: read-out: CDK6 CyclinD3 IC50
T4 construct: purchased Carna
Procedure: as §1, §2

T1 sequence (P50750 whole entry): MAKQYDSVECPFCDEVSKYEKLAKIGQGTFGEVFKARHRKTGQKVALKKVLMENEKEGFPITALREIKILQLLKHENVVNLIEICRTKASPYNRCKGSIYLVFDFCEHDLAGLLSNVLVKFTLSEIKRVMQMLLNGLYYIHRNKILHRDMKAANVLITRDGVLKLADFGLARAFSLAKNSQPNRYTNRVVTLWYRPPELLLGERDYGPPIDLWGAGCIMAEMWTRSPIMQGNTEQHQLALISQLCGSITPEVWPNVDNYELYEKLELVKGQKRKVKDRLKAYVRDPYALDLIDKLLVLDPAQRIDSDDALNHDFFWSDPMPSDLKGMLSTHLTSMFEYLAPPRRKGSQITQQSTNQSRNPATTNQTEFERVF
T1 sequence (O60563 whole entry partner): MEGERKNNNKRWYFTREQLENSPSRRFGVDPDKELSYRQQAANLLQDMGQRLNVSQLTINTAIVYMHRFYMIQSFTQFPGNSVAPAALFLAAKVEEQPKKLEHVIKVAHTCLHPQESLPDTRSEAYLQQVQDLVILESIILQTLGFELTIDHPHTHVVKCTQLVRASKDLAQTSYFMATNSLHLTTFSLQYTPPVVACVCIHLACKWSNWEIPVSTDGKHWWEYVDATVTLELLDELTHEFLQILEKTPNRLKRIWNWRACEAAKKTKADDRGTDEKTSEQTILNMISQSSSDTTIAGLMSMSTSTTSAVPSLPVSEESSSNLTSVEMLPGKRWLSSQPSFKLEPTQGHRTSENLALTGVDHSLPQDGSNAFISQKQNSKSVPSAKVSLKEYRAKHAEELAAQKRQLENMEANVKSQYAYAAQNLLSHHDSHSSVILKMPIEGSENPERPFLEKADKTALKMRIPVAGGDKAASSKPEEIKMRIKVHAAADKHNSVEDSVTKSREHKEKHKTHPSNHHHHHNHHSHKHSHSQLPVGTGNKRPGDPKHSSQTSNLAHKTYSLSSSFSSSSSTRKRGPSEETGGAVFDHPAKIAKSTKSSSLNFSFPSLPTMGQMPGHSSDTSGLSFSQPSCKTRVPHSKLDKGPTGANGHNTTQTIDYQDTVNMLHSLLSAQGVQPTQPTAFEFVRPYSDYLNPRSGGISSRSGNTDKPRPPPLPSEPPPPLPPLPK
Sequence of CDK1/B (P06493 whole entry): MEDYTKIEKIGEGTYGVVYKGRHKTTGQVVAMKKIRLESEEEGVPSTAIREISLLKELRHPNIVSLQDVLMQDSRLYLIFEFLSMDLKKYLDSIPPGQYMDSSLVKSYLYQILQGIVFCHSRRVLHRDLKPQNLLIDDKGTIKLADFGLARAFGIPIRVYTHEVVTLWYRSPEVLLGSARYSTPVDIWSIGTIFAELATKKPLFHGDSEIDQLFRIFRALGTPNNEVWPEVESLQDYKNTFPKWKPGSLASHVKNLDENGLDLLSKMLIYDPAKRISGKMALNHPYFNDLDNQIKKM
Sequence of CDK1/B (P14635 whole entry partner): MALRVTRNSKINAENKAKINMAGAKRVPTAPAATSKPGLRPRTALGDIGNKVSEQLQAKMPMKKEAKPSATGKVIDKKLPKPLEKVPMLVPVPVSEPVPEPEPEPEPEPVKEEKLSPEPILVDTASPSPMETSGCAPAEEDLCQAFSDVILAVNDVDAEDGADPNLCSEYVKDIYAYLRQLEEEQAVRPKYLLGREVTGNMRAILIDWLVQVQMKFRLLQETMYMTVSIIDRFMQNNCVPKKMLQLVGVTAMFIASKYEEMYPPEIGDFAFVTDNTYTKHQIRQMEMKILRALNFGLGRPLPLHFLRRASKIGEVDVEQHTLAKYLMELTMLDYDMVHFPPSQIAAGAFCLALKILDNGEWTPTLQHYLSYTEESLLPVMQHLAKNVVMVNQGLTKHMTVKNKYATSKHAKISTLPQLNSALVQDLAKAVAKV
T3 sequence (P11802 whole entry): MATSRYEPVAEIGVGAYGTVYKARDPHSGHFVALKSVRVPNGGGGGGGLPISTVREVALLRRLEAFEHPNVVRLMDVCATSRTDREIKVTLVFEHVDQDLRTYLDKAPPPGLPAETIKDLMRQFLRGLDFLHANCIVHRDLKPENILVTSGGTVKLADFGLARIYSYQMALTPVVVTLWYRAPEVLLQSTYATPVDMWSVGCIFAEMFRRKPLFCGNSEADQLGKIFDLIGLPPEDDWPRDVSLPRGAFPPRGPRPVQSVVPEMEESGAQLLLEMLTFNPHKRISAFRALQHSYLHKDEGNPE
T3 sequence (P24385 whole entry partner): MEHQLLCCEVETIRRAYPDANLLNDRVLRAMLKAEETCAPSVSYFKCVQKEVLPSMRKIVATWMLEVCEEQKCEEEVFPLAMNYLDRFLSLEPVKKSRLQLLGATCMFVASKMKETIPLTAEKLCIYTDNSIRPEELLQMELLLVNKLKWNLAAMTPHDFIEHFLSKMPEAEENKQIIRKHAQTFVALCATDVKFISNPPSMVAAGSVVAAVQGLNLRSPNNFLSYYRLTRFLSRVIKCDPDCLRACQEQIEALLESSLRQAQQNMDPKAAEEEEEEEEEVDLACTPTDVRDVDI
Sequence of CDK7 CyclinH (P50613 whole entry): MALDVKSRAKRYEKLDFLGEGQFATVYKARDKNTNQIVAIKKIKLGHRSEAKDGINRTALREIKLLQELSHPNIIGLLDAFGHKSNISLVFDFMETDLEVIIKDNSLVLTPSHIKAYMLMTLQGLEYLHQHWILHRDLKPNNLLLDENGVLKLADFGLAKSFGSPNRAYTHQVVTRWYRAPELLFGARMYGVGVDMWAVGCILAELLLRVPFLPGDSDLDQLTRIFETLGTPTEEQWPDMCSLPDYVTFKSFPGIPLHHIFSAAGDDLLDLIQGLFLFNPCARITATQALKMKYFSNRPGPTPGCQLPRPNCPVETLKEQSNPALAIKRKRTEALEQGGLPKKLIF
Sequence of CDK7 CyclinH (P51946 whole entry partner): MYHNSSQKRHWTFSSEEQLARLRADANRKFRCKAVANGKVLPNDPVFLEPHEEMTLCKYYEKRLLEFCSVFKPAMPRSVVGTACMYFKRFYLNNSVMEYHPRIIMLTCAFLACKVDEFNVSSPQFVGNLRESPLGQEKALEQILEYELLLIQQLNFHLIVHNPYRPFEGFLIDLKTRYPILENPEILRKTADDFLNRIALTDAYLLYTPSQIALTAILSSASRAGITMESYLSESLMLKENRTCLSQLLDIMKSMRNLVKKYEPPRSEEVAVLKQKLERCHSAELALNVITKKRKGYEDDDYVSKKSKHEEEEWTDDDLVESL
Sequence of CDK7 CyclinH (P51948 whole entry partner): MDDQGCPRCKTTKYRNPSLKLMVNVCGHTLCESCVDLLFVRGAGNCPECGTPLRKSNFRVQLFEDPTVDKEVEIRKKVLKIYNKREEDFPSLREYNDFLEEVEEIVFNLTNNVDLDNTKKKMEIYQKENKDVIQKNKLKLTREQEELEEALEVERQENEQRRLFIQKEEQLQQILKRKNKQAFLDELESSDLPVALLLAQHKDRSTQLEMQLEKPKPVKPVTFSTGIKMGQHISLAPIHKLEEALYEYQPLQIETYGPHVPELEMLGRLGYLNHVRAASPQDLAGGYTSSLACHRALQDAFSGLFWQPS
T4 sequence (Q00534 whole entry): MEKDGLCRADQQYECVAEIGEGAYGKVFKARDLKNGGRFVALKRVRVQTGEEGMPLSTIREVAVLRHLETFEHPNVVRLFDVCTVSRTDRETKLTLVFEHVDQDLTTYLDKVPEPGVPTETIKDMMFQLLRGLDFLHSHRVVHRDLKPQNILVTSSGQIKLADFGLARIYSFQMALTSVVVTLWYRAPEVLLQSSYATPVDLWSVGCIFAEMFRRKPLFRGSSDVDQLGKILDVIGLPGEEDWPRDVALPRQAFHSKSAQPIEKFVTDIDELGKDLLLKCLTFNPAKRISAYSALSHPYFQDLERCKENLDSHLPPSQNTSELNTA
T4 sequence (P30281 whole entry partner): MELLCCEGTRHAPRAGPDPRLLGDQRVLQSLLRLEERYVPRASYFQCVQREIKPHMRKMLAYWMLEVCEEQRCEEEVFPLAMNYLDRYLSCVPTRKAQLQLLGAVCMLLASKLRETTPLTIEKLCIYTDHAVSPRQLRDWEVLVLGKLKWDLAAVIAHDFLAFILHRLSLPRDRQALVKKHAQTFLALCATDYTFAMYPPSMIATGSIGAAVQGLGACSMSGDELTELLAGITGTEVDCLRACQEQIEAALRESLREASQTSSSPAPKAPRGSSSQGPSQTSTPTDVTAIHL

Row | pIC50 ([1]; Table 3a) | pIC50 ([2]; Table 3a) | pIC50 ([2]; Table 3b) | pIC50 [3] | pIC50 ([4]; Table 3a) | pIC50 ([4]; Table 3b) | pIC50 ([5]; Table 3a) | pIC50 ([5]; Table 3b) | pIC50 ([1]; Table 3b) | SMILES | pIC50 ([6]; Table 3a) | pIC50 ([6]; Table 3b)
1 | 8.39 | 5.82 | 5.82 | 6.36 | 6.40 | 6.40 | > 8.49 | > 8.49 | – | CC(C)N1CCN(c2ccc(Nc3ncc4cc(C(=O)N(C)C)n(C56CC(C5)C6)c4n3)cc2)CC1 (single isomer, unassigned) [Compound A89, 7-(bicyclo[1.1.1]pentan-1-yl)-2-((4-(4-isopropylpiperazin-1-yl)phenyl)amino)-N,N-dimethyl-7H-pyrrolo[2,3-d]pyrimidine-6-carboxamide] | – | –
2 | > 8.49 | 5.47 | 5.47 | 6.02 | 6.10 | 6.10 | 8.10 | 8.10 | > 8.49 | CN(C)CCOc1ccc(Nc2ncc3cc(C(=O)N(C)C)n(C45CC(C4)C5)c3n2)cc1 [Compound A60, 7-(bicyclo[1.1.1]pentan-1-yl)-2-((4-(2-(dimethylamino)ethoxy)phenyl)amino)-N,N-dimethyl-7H-pyrrolo[2,3-d]pyrimidine-6-carboxamide] | – | –
3 | > 8.49 | 5.58 | 5.58 | 6.21 | 6.15 | 6.15 | 7.83 | 7.83 | > 8.49 | Cc1cc(Nc2ncc3cc(C(=O)N(C)C)n(C45CC(C4)C5)c3n2)ccc1OCCN(C)C [Compound A92, 7-(bicyclo[1.1.1]pentan-1-yl)-2-((4-(2-(dimethylamino)ethoxy)-3-methylphenyl)amino)-N,N-dimethyl-7H-pyrrolo[2,3-d]pyrimidine-6-carboxamide] | – | –
4 | 8.26 | 5.69 | 5.69 | 6.34 | 6.18 | 6.18 | 8.34 | 8.34 | – | CN1CCC(c2ccc(Nc3ncc4cc(C(=O)N(C)C)n(C56CC(C5)C6)c4n3)cc2)CC1 [Compound A51, 7-(bicyclo[1.1.1]pentan-1-yl)-N,N-dimethyl-2-((4-(1-methylpiperidin-4-yl)phenyl)amino)-7H-pyrrolo[2,3-d]pyrimidine-6-carboxamide] | – | –
5 | 8.03 | 5.25 | 5.25 | 5.94 | 6.04 | 6.04 | 7.95 | 7.95 | – | CC1CN(c2ccc(Nc3ncc4cc(C(=O)N(C)C)n(C56CC(C5)C6)c4n3)cc2)CC(C)N1 (stereo not drawn) [Compound A90, 7-(bicyclo[1.1.1]pentan-1-yl)-2-((4-(3,5-dimethylpiperazin-1-yl)phenyl)amino)-N,N-dimethyl-7H-pyrrolo[2,3-d]pyrimidine-6-carboxamide] | – | –
6 | > 8.49 | < 5.00 | < 5.00 | 7.01 | 7.52 | 7.52 | 7.44 | 7.44 | > 8.49 | CN(C)C(=O)c1cc2cnc(Nc3ccc(S(C)(=O)=O)cc3)nc2n1C12CC(C1)C2 [Compound A79, 7-(bicyclo[1.1.1]pentan-1-yl)-N,N-dimethyl-2-((4-(methylsulfonyl)phenyl)amino)-7H-pyrrolo[2,3-d]pyrimidine-6-carboxamide] | – | –
7 | 8.15 | 5.24 | 5.24 | 5.88 | 6.16 | 6.16 | 7.59 | 7.59 | – | CC1CCN(c2ccc(Nc3ncc4cc(C(=O)N(C)C)n(C56CC(C5)C6)c4n3)cc2)CC1 [Compound A91, 7-(bicyclo[1.1.1]pentan-1-yl)-N,N-dimethyl-2-((4-(4-methylpiperidin-1-yl)phenyl)amino)-7H-pyrrolo[2,3-d]pyrimidine-6-carboxamide] | – | –
8 | > 8.49 | 6.03 | 6.03 | 6.60 | 6.61 | 6.61 | > 8.49 | > 8.49 | > 8.49 | CN(C)C(=O)c1cc2cnc(Nc3ccc(N4CCN(CCO)CC4)c(F)c3)nc2n1C12CC(C1)C2 [Compound A74, 7-(bicyclo[1.1.1]pentan-1-yl)-2-((3-fluoro-4-(4-(2-hydroxyethyl)piperazin-1-yl)phenyl)amino)-N,N-dimethyl-7H-pyrrolo[2,3-d]pyrimidine-6-carboxamide] | – | –
9 | 8.32 | 5.30 | 5.30 | 6.14 | 6.20 | 6.20 | 7.80 | 7.80 | – | CN1CC2(C1)CN(c1ccc(Nc3ncc4cc(C(=O)N(C)C)n(C56CC(C5)C6)c4n3)cc1F)C2 [Compound A70, 7-(bicyclo[1.1.1]pentan-1-yl)-2-((3-fluoro-4-(6-methyl-2,6-diazaspiro[3.3]heptan-2-yl)phenyl)amino)-N,N-dimethyl-7H-pyrrolo[2,3-d]pyrimidine-6-carboxamide] | – | –
10 | – | 5.57 | 5.57 | 6.25 | 6.20 | 6.20 | – | – | – | CN1CCN(C2CCN(c3ccc(Nc4ncc5cc(C(=O)N(C)C)n(C67CC(C6)C7)c5n4)cc3F)CC2)CC1 [Compound A68, 7-(bicyclo[1.1.1]pentan-1-yl)-2-((3-fluoro-4-(4-(4-methylpiperazin-1-yl)piperidin-1-yl)phenyl)amino)-N,N-dimethyl-7H-pyrrolo[2,3-d]pyrimidine-6-carboxamide] | – | –
11 | > 8.49 | 5.67 | 5.67 | 6.18 | 6.13 | 6.13 | 8.16 | 8.16 | > 8.49 | CN(C)CCOc1ccc(Nc2ncc3cc(C(=O)N(C)C)n(C45CC(C4)C5)c3n2)cc1F [Compound A93, 7-(bicyclo[1.1.1]pentan-1-yl)-2-((4-(2-(dimethylamino)ethoxy)-3-fluorophenyl)amino)-N,N-dimethyl-7H-pyrrolo[2,3-d]pyrimidine-6-carboxamide] | – | –
12 | 8.29 | < 5.00 | < 5.00 | 5.74 | 5.83 | 5.83 | 7.85 | 7.85 | – | CN1CC2(C1)CN(c1ccc(Nc3ncc4cc(C(=O)N(C)C)n(C56CC(C5)C6)c4n3)cc1)C2 [Compound A69, 7-(bicyclo[1.1.1]pentan-1-yl)-N,N-dimethyl-2-((4-(6-methyl-2,6-diazaspiro[3.3]heptan-2-yl)phenyl)amino)-7H-pyrrolo[2,3-d]pyrimidine-6-carboxamide] | – | –

Row | SMILES | pIC50 ([1]; Table 3a) | pIC50 ([2]; Table 3a) | pIC50 ([2]; Table 3b) | pIC50 [3] | pIC50 ([4]; Table 3a) | pIC50 ([4]; Table 3b) | pIC50 ([5]; Table 3a) | pIC50 ([5]; Table 3b) | pIC50 ([1]; Table 3b) | pIC50 ([6]; Table 3a) | pIC50 ([6]; Table 3b)
13 | CN1CCN(c2ccc(Nc3ncc4cc(C(=O)N(C)C)n(C56CC(C5)C6)c4n3)cc2)CC1 [Compound A88, 7-(bicyclo[1.1.1]pentan-1-yl)-N,N-dimethyl-2-((4-(4-methylpiperazin-1-yl)phenyl)amino)-7H-pyrrolo[2,3-d]pyrimidine-6-carboxamide dihydrogen chloride] | 8.29 | 5.78 | 5.78 | 6.42 | 6.45 | 6.45 | > 8.49 | > 8.49 | 8.29 | – | –
14 | CN1CCN(c2ccc(Nc3ncc4cc(C(=O)N(C)C)n(C56CC(C5)C6)c4n3)cc2)CC1 [Compound A84, 7-(bicyclo[1.1.1]pentan-1-yl)-N,N-dimethyl-2-((4-(4-methylpiperazin-1-yl)phenyl)amino)-7H-pyrrolo[2,3-d]pyrimidine-6-carboxamide] | 8.23 | 5.84 | 5.84 | – | 6.73 | 6.73 | 8.61 | 8.61 | 8.23 | 8.21 | 8.21
